Results on three compounds are retold here after paper PMC6476306 (Biochemistry, 2017).

The target of the assay is T1, S. aureus DnaG primase CTD (Staphylococcus aureus, UniProt P63964).
T1 sequence (P63964 463-605): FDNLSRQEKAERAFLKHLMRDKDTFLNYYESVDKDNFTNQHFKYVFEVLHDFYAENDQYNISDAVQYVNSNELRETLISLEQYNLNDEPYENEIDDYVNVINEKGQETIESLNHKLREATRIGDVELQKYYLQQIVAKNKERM
Put plainly: 2D 1H-15N HSQC NMR titration. Type of assay: binding.
With `Nc1nc2c(ncn2COCCO)c(=O)[nH]1` [acycloguanosine], the Kd was more than 4 mM.
As for `Nc1ncnc2c1ncn2[C@@H]1O[C@H](CO)[C@@H](O)[C@H]1O` [adenosine], the figure is more than 4 mM; as for `O=c1c(O)c(-c2cc(O)c(O)c(O)c2)oc2cc(O)cc(O)c12` [myricetin], more than 4 mM.

By Kd is commonly meant the concentration at which binding is half-saturated. The low end stands for a tighter complex, the high end for a looser complex.
